This passage reports IC50 results from patent US20250171459A1, “2-METHYL-4',5'-DIHYDROSPIRO[PIPERIDINE-4,7'-THIENO[2,3-C]PYRAN] DERIVATIVES AS INHIBITORS OF APOL1 AND METHODS OF USING SAME” (Vertex Pharmaceuticals Incorporated, priority 2022, published 2025).

This experiment addresses T1, APOL1 (Homo sapiens, UniProt O14791).
T1 sequence (O14791 1-398 S342G/I384M): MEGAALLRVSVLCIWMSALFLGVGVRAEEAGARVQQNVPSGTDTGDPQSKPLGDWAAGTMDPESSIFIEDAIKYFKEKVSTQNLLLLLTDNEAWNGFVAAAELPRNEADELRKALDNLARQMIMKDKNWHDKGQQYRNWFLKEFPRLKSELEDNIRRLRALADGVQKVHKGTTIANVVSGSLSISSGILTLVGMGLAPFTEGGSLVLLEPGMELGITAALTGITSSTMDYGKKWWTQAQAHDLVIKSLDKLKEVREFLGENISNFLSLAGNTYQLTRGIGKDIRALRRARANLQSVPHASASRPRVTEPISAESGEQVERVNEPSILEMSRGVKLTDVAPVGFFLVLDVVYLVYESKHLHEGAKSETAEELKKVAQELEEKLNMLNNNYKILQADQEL
The experiment in a line: MultiTox-Fluor Multiplex Cytotoxicity Assay in tet-inducible APOL1 T-REx-HEK293 cells (cell rescue, ratio of dead to live cells). Format: cell-based. The settings on record: tet-inducible transgenic APOL1 T-REx-HEK293 cell lines, 50 ng/mL tet, 24 hours; read-out: IP50 (i.e., IC50 for cell proliferation). The procedure, abridged:
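T-REx-HEK293 cells with tet-inducible APOL1 were treated with compound (10 μM top, 10-point 3-fold dilution, duplicate) plus 50 ng/mL tetracycline for 24 h at 37° C, in DMEM with 2% tet-free FBS. MultiTox-Fluor protease signals gave a dead/live ratio, normalized to no tet (100% viability) and tet alone (0%).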

As to `C[C@H]1C[C@@]2(CCN1Cc1cnn(CC3(O)CCOC3=O)c1)OCCc1c2sc(C(F)(F)F)c1CO` (stereo partly shown) [Compound 951], the IC50 lay in the range of 500 to 1000 nM. With `C[C@H]1C[C@@]2(CCN1Cc1cnn(CC3(O)CCCOC3)c1)OCCc1c2sc(C(F)(F)F)c1CO` (stereo partly shown) [Compound 952], the IC50 is < 100 nM.

For `C[C@H]1C[C@@]2(CCN1Cc1cnn(CC(C)(O)C(F)F)c1)OCCc1c2sc(C(F)(F)F)c1CO` (stereo partly shown) [Compound 953], the IC50 was < 100 nM. The result for `C[C@H]1C[C@@]2(CCN1Cc1cnn(CC3(O)CC(C#N)C3)c1)OCCc1c2sc(C(F)(F)F)c1CO` (stereo partly shown) [Compound 954] reads < 100 nM; that for `C[C@H]1C[C@@]2(CCN1Cc1cnn(CC(O)C3(O)CCCC3)c1)OCCc1c2sc(C(F)(F)F)c1CO` (stereo partly shown) [Compound 955], < 100 nM; that for `CC(C)OC[C@@H](O)Cn1cc(CN2CC[C@]3(C[C@@H]2C)OCCc2c3sc(C(F)(F)F)c2CO)cn1` [Compound 956], < 100 nM.

As for `CCOCCC(O)Cn1cc(CN2CC[C@]3(C[C@@H]2C)OCCc2c3sc(C(F)(F)F)c2CO)cn1` (stereo partly shown) [Compound 957], the IC50 is < 100 nM. `COCC(O)Cn1cc(CN2CC[C@]3(C[C@@H]2C)OCCc2c3sc(C(F)(F)F)c2CO)cn1` (stereo partly shown) [Compound 958]: the IC50 is < 100 nM.

In the case of `C[C@H]1C[C@@]2(CCN1Cc1cnn(CC(O)C3CCOCC3)c1)OCCc1c2sc(C(F)(F)F)c1CO` (stereo partly shown) [Compound 959], the IC50 was < 100 nM. The result for `C[C@H]1C[C@@]2(CCN1Cc1cnn(CC(O)C(C)(C)O)c1)OCCc1c2sc(C(F)(F)F)c1CO` (stereo partly shown) [Compound 960] reads < 100 nM; that for `C[C@H]1C[C@@]2(CCN1Cc1cnn(CC(O)CC3(O)CCC3)c1)OCCc1c2sc(C(F)(F)F)c1CO` (stereo partly shown) [Compound 961], < 100 nM; that for `C[C@H]1C[C@@]2(CCN1Cc1cnn(CC(O)CC3(O)CCCC3)c1)OCCc1c2sc(C(F)(F)F)c1CO` (stereo partly shown) [Compound 962], < 100 nM. `C[C@H]1C[C@@]2(CCN1Cc1cnn(CC(O)CC(C)(C)C#N)c1)OCCc1c2sc(C(F)(F)F)c1CO` (stereo partly shown) [Compound 963]: the IC50 was < 100 nM. The value for `C[C@H]1C[C@@]2(CCN1Cc1cnn(CC(O)C3CCCO3)c1)OCCc1c2sc(C(F)(F)F)c1CO` (stereo partly shown) [Compound 964] was < 100 nM; that for `C[C@H]1C[C@@]2(CCN1Cc1cnn(CC(O)c3ccnn3C)c1)OCCc1c2sc(C(F)(F)F)c1CO` (stereo partly shown) [Compound 965] was < 100 nM. As for `COCCOCC(O)Cn1cc(CN2CC[C@]3(C[C@@H]2C)OCCc2c3sc(C(F)(F)F)c2CO)cn1` (stereo partly shown) [Compound 966], the IC50 is < 100 nM. The result for `COCCC(O)Cn1cc(CN2CC[C@]3(C[C@@H]2C)OCCc2c3sc(C(F)(F)F)c2CO)cn1` (stereo partly shown) [Compound 967] reads < 100 nM; that for `C[C@H]1C[C@@]2(CCN1Cc1cnn(C[C@H](O)CO)c1)OC[C@@H](O)c1cc(C(F)(F)F)sc12` [Compound 968], < 100 nM. As to `C[C@H]1C[C@@]2(CCN1Cc1cnn(C[C@@H](O)CO)c1)OC[C@@H](O)c1cc(C(F)(F)F)sc12` [Compound 969], the IC50 was < 100 nM. With `C[C@H]1C[C@@]2(CCN1Cc1cnn(CC(O)C(N)=O)c1)OC[C@@H](O)c1cc(C(F)(F)F)sc12` (stereo partly shown) [Compound 970], the IC50 is < 100 nM. Regarding `C[C@H]1C[C@@]2(CCN1Cc1cnn(CC(O)C3(O)CCOC3)c1)OC[C@@H](O)c1cc(C(F)(F)F)sc12` (stereo partly shown) [Compound 971], the IC50 is < 100 nM. Take `C[C@H]1C[C@@]2(CCN1Cc1cnn(CC(C)(O)CO)c1)OC[C@@H](O)c1cc(C(F)(F)F)sc12` (stereo partly shown) [Compound 972]: the IC50 is < 100 nM. As for `C[C@H]1C[C@@]2(CCN1Cc1cnn(CC(O)CC3(C#N)CC3)c1)OC[C@@H](O)c1cc(C(F)(F)F)sc12` (stereo partly shown) [Compound 973], the IC50 was < 100 nM.

With `C[C@H]1C[C@@]2(CCN1Cc1cnn(CC3(O)CCS(=O)(=O)CC3)c1)OC[C@@H](O)c1cc(C(F)(F)F)sc12` [Compound 974], the IC50 is < 100 nM. The value for `C[C@H]1C[C@@]2(CCN1Cc1cnn(CC(O)CC3(O)COC3)c1)OC[C@@H](O)c1cc(C(F)(F)F)sc12` (stereo partly shown) [Compound 975] was < 100 nM; that for `C[C@H]1C[C@@]2(CCN1Cc1cnn(CC(O)CC3(O)CCC3)c1)OC[C@@H](O)c1cc(C(F)(F)F)sc12` (stereo partly shown) [Compound 976] was < 100 nM.

As to `C[C@H]1C[C@@]2(CCN1Cc1cnn(CC(O)CC(C)(C)O)c1)OC[C@@H](O)c1cc(C(F)(F)F)sc12` (stereo partly shown) [Compound 977], the IC50 is < 100 nM. `C[C@H]1C[C@@]2(CCN1Cc1cnn(CC(O)C3(O)CCOCC3)c1)OC[C@@H](O)c1cc(C(F)(F)F)sc12` (stereo partly shown) [Compound 978]: the IC50 is < 100 nM. In the case of `C[C@H]1C[C@@]2(CCN1Cc1cnn(CC(O)C3(O)CCC3)c1)OC[C@@H](O)c1cc(C(F)(F)F)sc12` (stereo partly shown) [Compound 979], the IC50 is < 100 nM. For the compound `CC(=CC(O)Cn1cc(CN2CC[C@]3(C[C@@H]2C)OC[C@@H](O)c2cc(C(F)(F)F)sc23)cn1)C1CC1` (stereo partly shown) [Compound 980], the IC50 lay in the range of 100 to 500 nM. The result for `C[C@H]1C[C@@]2(CCN1Cc1cnn(CC3CC4(CC4)C(=O)O3)c1)OCCc1c2sc(C(F)(F)F)c1CO` (stereo partly shown) [Compound 981] reads < 100 nM.

`C[C@H]1C[C@@]2(CCN1Cc1cnn(CC3CC4(CCC4)C(=O)O3)c1)OCCc1c2sc(C(F)(F)F)c1CO` (stereo partly shown) [Compound 982]: the IC50 was < 100 nM.

For `C[C@H]1C[C@@]2(CCN1Cc1cnn(CC3CC(C)(C)C(=O)O3)c1)OCCc1c2sc(C(F)(F)F)c1CO` (stereo partly shown) [Compound 983], the IC50 was < 100 nM.

For `C[C@H]1C[C@@]2(CCN1Cc1cnn(CC3CC4(CCOCC4)C(=O)O3)c1)OCCc1c2sc(C(F)(F)F)c1CO` (stereo partly shown) [Compound 984], the IC50 was < 100 nM. The result for `C[C@H]1C[C@@]2(CCN1Cc1cnn(C[C@@H](O)C(N)=O)c1)OCCc1c2sc(C(F)(F)F)c1CO` [Compound 985, (2R)-2-hydroxy-3-[4-[[(2′S, 7R)-3-(hydroxymethyl)-2′-methyl-2-(trifluoromethyl)spiro[4,5-dihydrothieno[2,3-c]pyran-7,4′-piperidine]-1′-yl]methyl]pyrazol-1-yl]propanamide] reads < 100 nM; that for `CNC(=O)[C@H](O)Cn1cc(CN2CC[C@]3(C[C@@H]2C)OCCc2c3sc(C(F)(F)F)c2CO)cn1` [Compound 986, (2R)-2-hydroxy-3-[4-[[(2′S, 7R)-3-(hydroxymethyl)-2′-methyl-2-(trifluoromethyl)spiro[4,5-dihydrothieno[2,3-c]pyran-7,4′-piperidine]-1′-yl]methyl]pyrazol-1-yl]-N-methyl-propanamide], < 100 nM; that for `C[C@H]1C[C@@]2(CCN1Cc1cnn(C[C@@H](O)C(=O)N(C)C)c1)OCCc1c2sc(C(F)(F)F)c1CO` [Compound 987, (2R)-2-hydroxy-3-[4-[[(2′S, 7R)-3-(hydroxymethyl)-2′-methyl-2-(trifluoromethyl)spiro[4,5-dihydrothieno[2,3-c]pyran-7,4′-piperidine]-1′-yl]methyl]pyrazol-1-yl]-N,N-dimethyl-propanamide], < 100 nM. For the compound `CCOC(=O)C(C)(O)Cn1cc(CN2CC[C@]3(C[C@@H]2C)OCCc2c3sc(C(F)(F)F)c2CO)cn1` (stereo partly drawn) [Compound 988, Ethyl 2-hydroxy-3-[4-[[(2′S, 7R)-3-(hydroxymethyl)-2′-methyl-2-(trifluoromethyl)spiro[4,5-dihydrothieno[2,3-c]pyran-7,4′-piperidine]-1′-yl]methyl]pyrazol-1-yl]-2-methyl-propanoate], the IC50 was < 100 nM. On to `C[C@H]1C[C@@]2(CCN1Cc1cnn(CC(C)(O)C(N)=O)c1)OCCc1c2sc(C(F)(F)F)c1CO` (stereo partly drawn) [Compound 989, 2-Hydroxy-3-[4-[[(2′S, 7R)-3-(hydroxymethyl)-2′-methyl-2-(trifluoromethyl)spiro[4,5-dihydrothieno[2,3-c]pyran-7,4′-piperidine]-1′-yl]methyl]pyrazol-1-yl]-2-methyl-propanamide], for which the IC50 is < 100 nM. As to `CNC(=O)C(C)(O)Cn1cc(CN2CC[C@]3(C[C@@H]2C)OCCc2c3sc(C(F)(F)F)c2CO)cn1` (stereo partly drawn) [Compound 990, 2-Hydroxy-3-[4-[[(2′S, 7R)-3-(hydroxymethyl)-2′-methyl-2-(trifluoromethyl)spiro[4,5-dihydrothieno[2,3-c]pyran-7,4′-piperidine]-1′-yl]methyl]pyrazol-1-yl]-N,2-dimethyl-propanamide], the IC50 is < 100 nM. As for `C[C@H]1C[C@@]2(CCN1Cc1cnn(CC(C)(O)C(=O)NC3CC3)c1)OCCc1c2sc(C(F)(F)F)c1CO` (stereo partly drawn) [Compound 991, N-cyclopropyl-2-hydroxy-3-[4-[[(2′S, 7R)-3-(hydroxymethyl)-2′-methyl-2-(trifluoromethyl)spiro[4,5-dihydrothieno[2,3-c]pyran-7,4′-piperidine]-1′-yl]methyl]pyrazol-1-yl]-2-methyl-propanamide], the IC50 is < 100 nM.

On to `C[C@H]1C[C@@]2(CCN1Cc1cnn(C[C@@H](O)C(N)=O)c1)OC[C@@H](O)c1cc(C(F)(F)F)sc12` [Compound 992, (2R)-2-hydroxy-3-[4-[[(2′S,4S,7R)-4-hydroxy-2′-methyl-2-(trifluoromethyl)spiro[4,5-dihydrothieno[2,3-c]pyran-7,4′-piperidine]-1′-yl]methyl]pyrazol-1-yl]propanamide], for which the IC50 was < 100 nM. For `CNC(=O)[C@H](O)Cn1cc(CN2CC[C@]3(C[C@@H]2C)OC[C@@H](O)c2cc(C(F)(F)F)sc23)cn1` [Compound 993], the IC50 was 100 to 500 nM.
